Results as given in patent US20190330224A1, “ACC INHIBITORS AND USES THEREOF” (Gilead Apollo, LLC, priority 2015, published 2019).
Converted amounts (≈) assume the structure as drawn.

What was measured:
[1] = biological target: Human ACC2 (Homo sapiens, UniProt O00763); experiment: In vitro ACC2 inhibition assay (ADP-Glo), human ACC2; type: biochemical; conditions: 5 nM ACC2, 20 μM ATP, 20 μM acetyl-CoA
[2] = test system: C. krusei ATCC 6258; experiment: Anti-Fungal Activity Assay (broth microtiter MIC), C. krusei; type: cell-based, Candida krusei; conditions: 3 replicates, MIC recorded at 48 h; for MIC: Pichia kudriavzevii, ATCC6258, 48 h, read-out: MIC C. krusei ATCC 6258
Summary of the method: (§1)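 Susceptibility testing used direct colony suspensions in RPMI 1640+MOPS from Sabouraud dextrose agar grown at 35° C. Endpoints were visual MICs at 48 h under CLSI M27-A3 microtiter conditions, plus a 24 h reading for soraphen.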

[3] = biological target: Fungal ACC2 (UniProt Q00955); conditions: read-out: Fungal ACC2 (IC50, in vitro ACC2 inhibition)
Chain of Fungal ACC2 (Q00955 whole entry): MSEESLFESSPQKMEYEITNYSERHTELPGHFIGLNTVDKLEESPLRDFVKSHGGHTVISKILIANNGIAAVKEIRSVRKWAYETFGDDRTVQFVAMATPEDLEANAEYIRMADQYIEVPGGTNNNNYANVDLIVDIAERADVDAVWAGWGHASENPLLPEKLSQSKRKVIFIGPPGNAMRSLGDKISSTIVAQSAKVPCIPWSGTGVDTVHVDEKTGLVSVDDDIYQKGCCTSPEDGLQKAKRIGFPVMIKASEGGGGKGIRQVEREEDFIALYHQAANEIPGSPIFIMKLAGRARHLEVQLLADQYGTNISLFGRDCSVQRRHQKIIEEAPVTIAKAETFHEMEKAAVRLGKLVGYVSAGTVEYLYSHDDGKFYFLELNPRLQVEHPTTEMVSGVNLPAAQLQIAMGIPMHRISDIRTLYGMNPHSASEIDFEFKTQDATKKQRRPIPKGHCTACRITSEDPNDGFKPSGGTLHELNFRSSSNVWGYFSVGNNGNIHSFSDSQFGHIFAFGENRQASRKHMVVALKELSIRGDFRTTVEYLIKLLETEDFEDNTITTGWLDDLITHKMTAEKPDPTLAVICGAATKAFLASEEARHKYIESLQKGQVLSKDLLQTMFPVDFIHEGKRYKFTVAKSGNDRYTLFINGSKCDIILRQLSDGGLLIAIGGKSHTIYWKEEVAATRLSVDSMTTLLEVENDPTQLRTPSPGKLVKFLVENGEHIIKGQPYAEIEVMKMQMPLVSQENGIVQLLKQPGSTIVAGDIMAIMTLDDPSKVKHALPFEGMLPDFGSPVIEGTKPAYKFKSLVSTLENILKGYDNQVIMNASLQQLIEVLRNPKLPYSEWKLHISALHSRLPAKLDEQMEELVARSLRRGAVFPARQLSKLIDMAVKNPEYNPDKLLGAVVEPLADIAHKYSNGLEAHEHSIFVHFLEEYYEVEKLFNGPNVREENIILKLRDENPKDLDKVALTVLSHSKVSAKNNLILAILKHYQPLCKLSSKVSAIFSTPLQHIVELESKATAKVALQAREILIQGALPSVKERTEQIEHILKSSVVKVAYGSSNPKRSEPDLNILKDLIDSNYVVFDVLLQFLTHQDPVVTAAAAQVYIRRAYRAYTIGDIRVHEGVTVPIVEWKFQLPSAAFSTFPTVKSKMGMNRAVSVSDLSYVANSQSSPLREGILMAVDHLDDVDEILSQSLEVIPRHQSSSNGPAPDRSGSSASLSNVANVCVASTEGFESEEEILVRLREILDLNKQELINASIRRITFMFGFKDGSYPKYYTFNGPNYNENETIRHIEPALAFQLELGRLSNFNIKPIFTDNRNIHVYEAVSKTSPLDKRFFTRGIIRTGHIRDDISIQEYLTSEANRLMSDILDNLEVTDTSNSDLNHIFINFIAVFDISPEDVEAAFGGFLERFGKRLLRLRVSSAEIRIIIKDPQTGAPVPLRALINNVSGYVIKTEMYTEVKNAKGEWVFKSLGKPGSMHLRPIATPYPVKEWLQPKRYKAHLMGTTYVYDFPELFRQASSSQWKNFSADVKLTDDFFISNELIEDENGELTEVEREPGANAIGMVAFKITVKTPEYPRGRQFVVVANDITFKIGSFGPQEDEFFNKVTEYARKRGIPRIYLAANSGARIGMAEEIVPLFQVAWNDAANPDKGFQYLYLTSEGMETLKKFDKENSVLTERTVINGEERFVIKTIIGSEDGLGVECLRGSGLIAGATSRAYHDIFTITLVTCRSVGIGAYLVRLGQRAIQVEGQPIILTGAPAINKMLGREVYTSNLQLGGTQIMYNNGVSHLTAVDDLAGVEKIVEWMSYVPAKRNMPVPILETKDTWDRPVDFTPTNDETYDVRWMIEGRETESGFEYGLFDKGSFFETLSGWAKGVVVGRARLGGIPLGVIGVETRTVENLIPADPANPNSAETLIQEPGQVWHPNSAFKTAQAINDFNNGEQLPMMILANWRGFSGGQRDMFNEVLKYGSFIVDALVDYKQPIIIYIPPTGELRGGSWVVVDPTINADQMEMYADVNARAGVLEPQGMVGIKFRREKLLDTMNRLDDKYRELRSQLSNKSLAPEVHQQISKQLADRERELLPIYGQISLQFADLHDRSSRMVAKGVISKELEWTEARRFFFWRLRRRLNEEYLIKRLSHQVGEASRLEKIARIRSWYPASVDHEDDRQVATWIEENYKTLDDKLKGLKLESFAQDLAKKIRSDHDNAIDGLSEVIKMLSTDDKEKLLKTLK

[4] = test system: C. parapsilosis ATCC 22019; experiment: Anti-Fungal Activity Assay (broth microtiter MIC), C. parapsilosis; type: cell-based, Candida parapsilosis; conditions: 3 replicates, MIC recorded at 48 h; for MIC: Lodderomyces parapsilosis, ATCC22019, 48 h, read-out: MIC C. parapsilosis ATCC 22019
Summary of the method: as §1

[5] = test system: C. albicans ATCC 90028; experiment: Anti-Fungal Activity Assay (broth microtiter MIC), C. albicans; type: cell-based, Candida albicans; conditions: 3 replicates, MIC recorded at 48 h; for MIC: Candida albicans, ATCC90028, 48 h, read-out: MIC C. albicans ATCC 90028
Summary of the method: as §1

Chain of Human ACC2 (O00763 whole entry): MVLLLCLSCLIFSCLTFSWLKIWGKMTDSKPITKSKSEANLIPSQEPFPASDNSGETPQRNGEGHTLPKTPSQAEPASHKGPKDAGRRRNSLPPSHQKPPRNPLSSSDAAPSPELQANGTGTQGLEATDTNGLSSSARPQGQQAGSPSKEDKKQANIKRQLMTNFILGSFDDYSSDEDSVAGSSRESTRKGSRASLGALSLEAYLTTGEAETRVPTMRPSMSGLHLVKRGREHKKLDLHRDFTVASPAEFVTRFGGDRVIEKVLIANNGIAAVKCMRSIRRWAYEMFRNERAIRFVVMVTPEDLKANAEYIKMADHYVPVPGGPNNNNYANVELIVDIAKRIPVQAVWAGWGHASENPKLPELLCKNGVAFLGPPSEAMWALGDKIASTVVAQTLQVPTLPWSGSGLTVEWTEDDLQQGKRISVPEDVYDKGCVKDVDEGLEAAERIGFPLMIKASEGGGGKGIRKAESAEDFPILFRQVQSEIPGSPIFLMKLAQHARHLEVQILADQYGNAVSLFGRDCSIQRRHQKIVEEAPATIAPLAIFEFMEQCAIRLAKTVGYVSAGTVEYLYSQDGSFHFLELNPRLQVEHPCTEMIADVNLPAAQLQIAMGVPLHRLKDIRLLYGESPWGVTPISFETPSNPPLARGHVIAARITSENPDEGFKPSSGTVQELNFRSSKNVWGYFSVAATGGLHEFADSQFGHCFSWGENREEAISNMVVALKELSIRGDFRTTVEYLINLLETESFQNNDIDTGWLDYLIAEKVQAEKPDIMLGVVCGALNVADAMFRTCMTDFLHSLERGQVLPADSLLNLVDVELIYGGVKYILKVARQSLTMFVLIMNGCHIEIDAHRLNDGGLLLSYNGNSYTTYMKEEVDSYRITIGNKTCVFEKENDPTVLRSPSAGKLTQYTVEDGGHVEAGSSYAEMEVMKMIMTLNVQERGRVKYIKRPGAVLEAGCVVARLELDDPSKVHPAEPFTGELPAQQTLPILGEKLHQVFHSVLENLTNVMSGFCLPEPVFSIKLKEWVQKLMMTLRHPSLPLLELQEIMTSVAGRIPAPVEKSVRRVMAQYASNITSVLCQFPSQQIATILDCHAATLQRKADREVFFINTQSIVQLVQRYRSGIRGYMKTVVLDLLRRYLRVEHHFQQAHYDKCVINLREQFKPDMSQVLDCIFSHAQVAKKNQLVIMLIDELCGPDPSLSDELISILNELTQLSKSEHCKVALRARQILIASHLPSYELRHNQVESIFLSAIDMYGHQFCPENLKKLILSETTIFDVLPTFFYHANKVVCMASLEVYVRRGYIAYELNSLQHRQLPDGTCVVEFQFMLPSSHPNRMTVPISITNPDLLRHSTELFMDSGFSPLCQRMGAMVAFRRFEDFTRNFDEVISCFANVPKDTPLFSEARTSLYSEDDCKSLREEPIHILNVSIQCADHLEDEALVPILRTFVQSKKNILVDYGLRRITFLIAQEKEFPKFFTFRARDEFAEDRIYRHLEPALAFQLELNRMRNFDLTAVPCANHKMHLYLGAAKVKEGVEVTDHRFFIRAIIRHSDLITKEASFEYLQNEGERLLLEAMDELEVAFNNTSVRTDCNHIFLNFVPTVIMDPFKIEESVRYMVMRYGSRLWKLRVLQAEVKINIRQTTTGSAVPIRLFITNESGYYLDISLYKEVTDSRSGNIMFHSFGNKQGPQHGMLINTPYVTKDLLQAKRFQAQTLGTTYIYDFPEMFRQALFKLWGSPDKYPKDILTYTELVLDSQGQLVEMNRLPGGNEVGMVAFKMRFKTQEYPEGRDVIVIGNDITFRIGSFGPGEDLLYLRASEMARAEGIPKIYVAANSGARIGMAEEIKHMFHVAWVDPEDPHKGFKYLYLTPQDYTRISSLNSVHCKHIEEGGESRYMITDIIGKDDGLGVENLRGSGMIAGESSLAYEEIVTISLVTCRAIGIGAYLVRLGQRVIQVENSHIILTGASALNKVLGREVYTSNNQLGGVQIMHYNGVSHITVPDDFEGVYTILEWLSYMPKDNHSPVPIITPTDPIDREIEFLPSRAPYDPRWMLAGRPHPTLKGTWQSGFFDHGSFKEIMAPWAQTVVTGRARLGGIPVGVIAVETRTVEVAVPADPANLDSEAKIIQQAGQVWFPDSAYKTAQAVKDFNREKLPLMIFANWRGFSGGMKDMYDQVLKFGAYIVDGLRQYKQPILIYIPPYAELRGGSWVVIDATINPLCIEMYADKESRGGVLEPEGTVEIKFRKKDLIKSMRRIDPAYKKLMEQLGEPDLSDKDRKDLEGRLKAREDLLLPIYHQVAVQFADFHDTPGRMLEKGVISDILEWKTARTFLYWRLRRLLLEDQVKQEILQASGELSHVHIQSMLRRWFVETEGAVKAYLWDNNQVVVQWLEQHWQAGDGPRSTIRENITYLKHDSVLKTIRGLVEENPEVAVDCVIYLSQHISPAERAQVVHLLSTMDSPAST

Row | Structure (SMILES) | IC50 [1] [nM] | MIC [2] [µg/mL] | IC50 [3] [nM] | MIC [4] [µg/mL] | MIC [5] [µg/mL] | MIC C. krusei ATCC 6258 [2] | MIC C. parapsilosis ATCC 22019 [4] | MIC C. albicans ATCC 90028 [5]
1 | COc1ccc(F)cc1[C@H](Cn1c(=O)n([C@H]2CCCN(C)C2=O)c(=O)c2c(C)c(-n3nccn3)sc21)OCCC#N [Compound I-116, 3-((R)-1-(5-fluoro-2-methoxyphenyl)-2-(5-methyl-3-((S)-1-methyl-2-oxopiperidin-3-yl)-2,4-dioxo-6-(2H-1,2,3-triazol-2-yl)-3,4-dihydrothieno[2,3-d]pyrimidin-1(2H)-yl)ethoxy)propanenitrile] | 10 to 100 | 2.1 to 4 (≈ 3.61 to 6.88 µM) | 0.7 to 2 | 2.1 to 4 (≈ 3.61 to 6.88 µM) | 2.1 to 4 (≈ 3.61 to 6.88 µM) |  |  | 
2 | COc1ccc(F)cc1[C@H](COc1nc2sc(-n3nccn3)c(C)c2c(=O)n1C1CC(=O)N(C)C1)OCCO (stereo in doubt) [Compound I-113, 2-((R)-2-(5-fluoro-2-methoxyphenyl)-2-(2-hydroxy-ethoxy)ethoxy)-5-methyl-3-((S)-1-methyl-5-oxopyrrolidin-3-yl)-6-(2H-1,2,3-triazol-2-yl)thieno[2,3-d]pyrimidin-4(3H)-one] | > 1000 |  | 10 to 100 |  |  | C (provided an MIC of 2.1-4.0 μg/mL) | C (provided an MIC of 2.1-4.0 μg/mL) | C (provided an MIC of 2.1-4.0 μg/mL)
3 | COc1ccccc1[C@@H](O)Cn1c(=O)n([C@@H]2CCN(C)C2=O)c(=O)c2c(C)c(-n3nccn3)sc21 [Compound I-169, 1-((R)-2-hydroxy-2-(2-methoxyphenyl)ethyl)-5-methyl-3-((R)-1-methyl-2-oxopyrrolidin-3-yl)-6-(2H-1,2,3-triazol-2-yl)thieno[2,3-d]pyrimidine-2,4(1H,3H)-dione] | 10 to 100 | 2.1 to 4 (≈ 4.23 to 8.06 µM) | 0.7 to 2 | 2.1 to 4 (≈ 4.23 to 8.06 µM) | 2.1 to 4 (≈ 4.23 to 8.06 µM) |  |  | 
4 | COCCO[C@@H](Cn1c(=O)n(C2CCNC2=O)c(=O)c2c(C)c(-n3nccn3)sc21)c1cc(F)ccc1OC (stereo partly drawn) [Compound I-1, 1-((R)-2-(5-fluoro-2-methoxyphenyl)-2-(2-methoxyethoxy)ethyl)-5-methyl-3-(2-oxopyrrolidin-3-yl)-6-(2H-1,2,3-triazol-2-yl)thieno[2,3-d]pyrimidine-2,4(1H,3H)-dione] | 2 to 10 | 2.1 to 4 (≈ 3.76 to 7.16 µM) | 0.7 to 2 | 2.1 to 4 (≈ 3.76 to 7.16 µM) | 2.1 to 4 (≈ 3.76 to 7.16 µM) |  |  | 
5 | COc1ccc(F)cc1[C@H](Cn1c(=O)n([C@H]2CNC(=O)C2)c(=O)c2c(C)c(-n3nccn3)sc21)OCCO [Compound I-89, 1-((R)-2-(5-fluoro-2-methoxyphenyl)-2-(2-hydroxy-ethoxy)ethyl)-5-methyl-3-((R)-5-oxopyrrolidin-3-yl)-6-(2H-1,2,3-triazol-2-yl)thieno[2,3-d]pyrimidine-2,4(1H, 3H)-dione] | 2 to 10 | 2.1 to 4 (≈ 3.86 to 7.35 µM) | 0.7 to 2 | 2.1 to 4 (≈ 3.86 to 7.35 µM) | 2.1 to 4 (≈ 3.86 to 7.35 µM) |  |  | 
6 | COc1ccc(F)cc1[C@H](COc1nc2sc(-n3nccn3)c(C)c2c(=O)n1[C@@H]1CNC(=O)C1)OCCO [Compound I-103, 2-((R)-2-(5-fluoro-2-methoxyphenyl)-2-(2-hydroxy-ethoxy)ethoxy)-5-methyl-3-((S)-5-oxopyrrolidin-3-yl)-6-(2H-1,2,3-triazol-2-yl)thieno[2,3-d]pyrimidin-4(3H)-one] | > 1000 | 2.1 to 4 (≈ 3.86 to 7.35 µM) | 10 to 100 | 2.1 to 4 (≈ 3.86 to 7.35 µM) | 2.1 to 4 (≈ 3.86 to 7.35 µM) |  |  | 
7 | COc1ccccc1[C@H](Cn1c(=O)n([C@@H]2CCCN(C)C2=O)c(=O)c2c(C)c(-c3ncco3)sc21)OCCO [Compound I-67, 1-((R)-2-(2-hydroxyethoxy)-2-(2-methoxyphenyl)ethyl)-5-methyl-3-((R)-1-methyl-2-oxopiperidin-3-yl)-6-(oxazol-2-yl)thieno[2,3-d]pyrimidine-2,4(1H,3H)-dione] | 10 to 100 | 2.1 to 4 (≈ 3.79 to 7.21 µM) | 2 to 10 | 2.1 to 4 (≈ 3.79 to 7.21 µM) | 2.1 to 4 (≈ 3.79 to 7.21 µM) |  |  | 
8 | COc1ccccc1[C@H](Cn1c(=O)n([C@@H]2CCN(C)C2=O)c(=O)c2c(C)c(-n3nccn3)sc21)OC [Compound I-172, 1-((R)-2-methoxy-2-(2-methoxyphenyl)ethyl)-5-methyl-3-((R)-1-methyl-2-oxopyrrolidin-3-yl)-6-(2H-1,2,3-triazol-2-yl)thieno[2,3-d]pyrimidine-2,4(1H,3H)-dione] | 10 to 100 | 2.1 to 4 (≈ 4.11 to 7.83 µM) | 0.7 to 2 | 2.1 to 4 (≈ 4.11 to 7.83 µM) | 2.1 to 4 (≈ 4.11 to 7.83 µM) |  |  | 
9 | COCCO[C@@H](Cn1c(=O)n([C@]2(C)CCCN(C)C2=O)c(=O)c2c(C)c(-n3nccn3)sc21)c1cc(F)ccc1OC [Compound I-128, 3-((R)-1,3-dimethyl-2-oxopiperidin-3-yl)-1-((R)-2-(5-fluoro-2-methoxyphenyl)-2-(2-methoxyethoxy)ethyl)-5-methyl-6-(2H-1,2,3-triazol-2-yl)thieno[2,3-d]pyrimidine-2,4(1H,3H)-dione] | 10 to 100 | 2.1 to 4 (≈ 3.5 to 6.66 µM) | 2 to 10 | 2.1 to 4 (≈ 3.5 to 6.66 µM) | 2.1 to 4 (≈ 3.5 to 6.66 µM) |  |  | 
10 | Cc1c(-n2nccn2)sc2c1c(=O)n([C@@H]1CCN(C)C1=O)c(=O)n2C[C@H](O[C@H]1CC[C@@H](O)CC1)c1cc(F)ccc1O [Compound I-189, 1-((R)-2-(5-fluoro-2-hydroxyphenyl)-2-(((1s, 4S)-4-hydroxycyclohexyl)oxy)ethyl)-5-methyl-3-((R)-1-methyl-2-oxopyrrolidin-3-yl)-6-(2H-1,2,3-triazol-2-yl)thieno[2,3-d]pyrimidine-2,4(1H, 3H)-dione] | 2 to 10 | 2.1 to 4 (≈ 3.51 to 6.68 µM) | 0.7 to 2 | 2.1 to 4 (≈ 3.51 to 6.68 µM) | 2.1 to 4 (≈ 3.51 to 6.68 µM) |  |  | 
11 | COc1ccc(F)cc1[C@H](Cn1c(=O)n([C@@H]2CCCNC2=O)c(=O)c2c(C)c(-n3nccn3)sc21)O[C@H]1CC[C@@H](O)CC1 [Compound I-174, 1-((R)-2-(5-fluoro-2-methoxyphenyl)-2-(((1 s, 4S)-4-hydroxycyclohexyl)oxy)ethyl)-5-methyl-3-((R)-2-oxopiperidin-3-yl)-6-(2H-1,2,3-triazol-2-yl)thieno[2,3-d]pyrimidine-2,4(1H,3H)-dione] | 2 to 10 | 0.25 to 1 (≈ 0.408 to 1.63 µM) | 0.7 to 2 | 1.1 to 2 (≈ 1.8 to 3.26 µM) | 0.25 to 1 (≈ 0.408 to 1.63 µM) |  |  | 
12 | COCCO[C@@H](Cn1c(=O)n([C@]2(C)CC(=O)N(C)C2)c(=O)c2c(C)c(-n3nccn3)sc21)c1cc(F)ccc1OC [Compound I-120, 3-((R)-1,3-dimethyl-5-oxopyrrolidin-3-yl)-1-((R)-2-(5-fluoro-2-methoxyphenyl)-2-(2-methoxyethoxy)ethyl)-5-methyl-6-(2H-1,2,3-triazol-2-yl)thieno[2,3-d]pyrimidine-2,4(1H,3H)-dione] | 10 to 100 | 2.1 to 4 (≈ 3.58 to 6.82 µM) | 0.7 to 2 | 2.1 to 4 (≈ 3.58 to 6.82 µM) | 2.1 to 4 (≈ 3.58 to 6.82 µM) |  |  | 
13 | COc1ccc(F)cc1[C@H](Cn1c(=O)n([C@@H]2CCN(C)C2=O)c(=O)c2c(C)c(-n3cccn3)sc21)O[C@H]1CC[C@@H](O)CC1 [Compound I-181, 1-((R)-2-(5-fluoro-2-methoxyphenyl)-2-(((I s, 4S)-4-hydroxycyclohexyl)oxy)ethyl)-5-methyl-3-((R)-1-methyl-2-oxopyrrolidin-3-yl)-6-(1H-pyrazol-1-yl)thieno[2,3-d]pyrimidine-2,4(1H,3H)-dione] | 2 to 10 | 1.1 to 2 (≈ 1.8 to 3.27 µM) | 0.7 to 2 | 1.1 to 2 (≈ 1.8 to 3.27 µM) | 0.25 to 1 (≈ 0.409 to 1.63 µM) |  |  | 
14 | COc1ccccc1C(=O)Cn1c(=O)n([C@H]2CCN(C)C2=O)c(=O)c2c(C)c(-n3nccn3)sc21 [Compound I-163, (S)-1-(2-(2-methoxyphenyl)-2-oxoethyl)-5-methyl-3-(1-methyl-2-oxopyrrolidin-3-yl)-6-(2H-1,2,3-triazol-2-yl)thieno[2,3-d]pyrimidine-2,4(1H,3H)-dione] | > 1000 | 2.1 to 4 (≈ 4.25 to 8.09 µM) | 100 to 1000 | 2.1 to 4 (≈ 4.25 to 8.09 µM) | 2.1 to 4 (≈ 4.25 to 8.09 µM) |  |  | 
15 | COc1ccc(F)cc1C(=O)Cn1c(=O)n(C2CCN(C)C2=O)c(=O)c2c(C)c(-n3nccn3)sc21 (stereo in doubt) [Compound I-162, (R)-1-(2-(5-fluoro-2-methoxyphenyl)-2-oxoethyl)-5-methyl-3-(1-methyl-2-oxopyrrolidin-3-yl)-6-(2H-1,2,3-triazol-2-yl)thieno[2,3-d]pyrimidine-2,4(1H,3H)-dione] | 100 to 1000 |  | 10 to 100 |  |  | C (provided an MIC of 2.1-4.0 μg/mL) | C (provided an MIC of 2.1-4.0 μg/mL) | C (provided an MIC of 2.1-4.0 μg/mL)
16 | COc1ccccc1[C@@H](O)Cn1c(=O)n([C@H]2CCN(C)C2=O)c(=O)c2c(C)c(-n3nccn3)sc21 [Compound I-165, 1-((R)-2-hydroxy-2-(2-methoxyphenyl)ethyl)-5-methyl-3-((S)-1-methyl-2-oxopyrrolidin-3-yl)-6-(2H-1,2,3-triazol-2-yl)thieno[2,3-d]pyrimidine-2,4(1H,3H)-dione] | 10 to 100 | 2.1 to 4 (≈ 4.23 to 8.06 µM) | 2 to 10 | 2.1 to 4 (≈ 4.23 to 8.06 µM) | 2.1 to 4 (≈ 4.23 to 8.06 µM) |  |  | 
17 | COc1ccc(F)cc1[C@H](Cn1c(=O)n([C@H]2CCN(C)C2=O)c(=O)c2c(C)c(-n3cccn3)sc21)OCCC(=O)O [Compound I-180, 3-((R)-1-(5-fluoro-2-methoxyphenyl)-2-(5-methyl-3-((S)-1-methyl-2-oxopyrrolidin-3-yl)-2,4-dioxo-6-(1H-pyrazol-1-yl)-3,4-dihydrothieno[2,3-d]pyrimidin-1(2H)-yl)ethoxy)propanoic acid] | 100 to 1000 | 2.1 to 4 (≈ 3.59 to 6.83 µM) | 10 to 100 | 2.1 to 4 (≈ 3.59 to 6.83 µM) | 2.1 to 4 (≈ 3.59 to 6.83 µM) |  |  | 
